The nature of this series: Prodrug to drug conversion half-life in vitro, PBS pH 7.4, 37° C. The format is physicochemical. Particulars: buffer. As to the method: General Methods for Measuring Conversion Half-Life
The assay was performed to investigate the conversion half-life of prodrug to drug of the prodrugs of the invention.
Peptide stock solutions were prepared by dissolving freeze-dried powder in PBS buffer to a target of 200 μM. PBS-buffer was Dulbecco's Phosphate Buffered Saline without CaCl2 and MgCl2, gibco 14190-094 adjusted to pH=7.4. The pH of the peptide stock solutions was adjusted to 7.4 with 0.02 M HCl or 0.02M NaOH. Samples were filled in Agilent HPLC vials with fixed insert. Vials were capped to prevent evaporation. The HPLC vials were incubated at 37° C. and samples were withdrawn at different time points over a period of 2 weeks, flash frozen at −80° C., and stored at −20° C. until analysis.
Sample analysis was carried out using UPLC coupled to UV detection at 215 nm and MS (UPLC-UV-MS). One μl of sample was injected on to a Waters Acquity UPLC with a flow-through-needle injection system and on to a Waters Acquity CSH C18 column (1*150 mm), with a particle size of 1.7 μm and held at 55° C. A flow-rate of 100 μl/min was delivered with a Binary solvent manager pump having 0.1% formic acid in water as solvent A and 0.1% formic acid in acetonitrile as solvent B. Gradient elution was carried out using 15-32% B from 0 to 4 min followed by 32 to 48% B from 4 to 54 min. […]

For `CC[C@H](C)[C@H](NC(=O)[C@H](Cc1ccccc1)NC(=O)[C@H](CCC(=O)O)NC(=O)[C@H](CCCCNC(=O)COCCOCCNC(=O)COCCOCCNC(=O)CC[C@H](NC(=O)CCCCCCCCCCCCCCCCC(=O)O)C(=O)O)NC(=O)[C@H](C)NC(=O)[C@H](C)NC(=O)[C@H](CCC(N)=O)NC(=O)CNC(=O)[C@H](CCC(=O)O)NC(=O)[C@H](CC(C)C)NC(=O)[C@H](Cc1ccc(O)cc1)NC(=O)[C@H](CO)NC(=O)[C@H](CO)NC(=O)[C@@H](NC(=O)[C@H](CC(=O)O)NC(=O)[C@H](CO)NC(=O)[C@@H](NC(=O)[C@H](Cc1ccccc1)NC(=O)[C@@H](NC(=O)CNC(=O)[C@H](CCC(=O)O)NC(=O)C(C)(C)NC(=O)[C@H](Cc1c[nH]cn1)NC(=O)CN(CCNC(=O)CC[C@H](NC(=O)CCCCCCCCCOc1ccc(C(=O)O)cc1)C(=O)O)C(=O)CN)[C@@H](C)O)[C@@H](C)O)C(C)C)C(=O)N[C@@H](C)C(=O)N[C@@H](Cc1c[nH]c2ccccc12)C(=O)N[C@@H](CC(C)C)C(=O)N[C@H](C(=O)N[C@@H](CCCNC(=N)N)C(=O)NCC(=O)N[C@@H](CCCNC(=N)N)C(=O)NCC(=O)O)C(C)C` [Chem. 18, Gly-N^α-2-[[(4S)-4-carboxy-4-[10-(4-carboxyphenoxy)decanoylamino]butanoyl]amino]ethyl-Gly-semaglutide], the half-life is 115 h.
Next, `CC[C@H](C)[C@H](NC(=O)[C@H](Cc1ccccc1)NC(=O)[C@H](CCC(=O)O)NC(=O)[C@H](CCCCNC(=O)COCCOCCNC(=O)COCCOCCNC(=O)CC[C@H](NC(=O)CCCCCCCCCCCCCCCCC(=O)O)C(=O)O)NC(=O)[C@H](C)NC(=O)[C@H](C)NC(=O)[C@H](CCC(N)=O)NC(=O)CNC(=O)[C@H](CCC(=O)O)NC(=O)[C@H](CC(C)C)NC(=O)[C@H](Cc1ccc(O)cc1)NC(=O)[C@H](CO)NC(=O)[C@H](CO)NC(=O)[C@@H](NC(=O)[C@H](CC(=O)O)NC(=O)[C@H](CO)NC(=O)[C@@H](NC(=O)[C@H](Cc1ccccc1)NC(=O)[C@@H](NC(=O)CNC(=O)[C@H](CCC(=O)O)NC(=O)C(C)(C)NC(=O)[C@H](Cc1c[nH]cn1)NC(=O)CN(CCNC(=O)CC[C@H](NC(=O)CCCCCCCCCCOc1ccc(C(=O)O)cc1)C(=O)O)C(=O)CN)[C@@H](C)O)[C@@H](C)O)C(C)C)C(=O)N[C@@H](C)C(=O)N[C@@H](Cc1c[nH]c2ccccc12)C(=O)N[C@@H](CC(C)C)C(=O)N[C@H](C(=O)N[C@@H](CCCNC(=N)N)C(=O)NCC(=O)N[C@@H](CCCNC(=N)N)C(=O)NCC(=O)O)C(C)C` [Chem. 26, Gly-N^α-2-[[(4S)-4-carboxy-4-[11-(4-carboxyphenoxy)undecanoylamino]butanoyl]amino]ethyl-Gly-semaglutide]: 118 h.

For the origin of these results see patent US12616739B2, “GLP-1 prodrugs and uses thereof” (Novo Nordisk A/S, priority 2020, dated 2026).
